# Laboratory results reported in patent US6716812B1, “Modulation of sperm function” (priority 1998, dated 2004).
# Positions of bridges follow the written chain, without caps; N, C: chain ends. Non-standard residues stand in square brackets, D forms with d. Residues, ends and D or L forms follow the SMILES beside them. No end group written: not given here. pGlu = O=C1CC[C@@H](C(=O)O)N1
# Tests used:
# [1] = test system: uncapacitated mouse sperm; experiment: Chlortetracycline (CTC) fluorescence analysis of capacitation in uncapacitated sperm; format: cell-based; conditions: 40 min incubation
# Experimental: The contents of cauda epididymides (3-4 cauda per ml of medium) from mature TO male mice (Harlan Olac, Bicester, U.K.) were released into 2 ml modified Tyrode's medium (Fraser, 1993) in 30 mm sterile culture dishes and allowed to disperse for 5 min. For studies on uncapacitated sperm, suspensions were then filtered through short columns of Sephadex G-25 (medium grade; Pharmacia, Uppsala, Sweden) to remove non-motile cells. Filtered suspensions were aliquotted out to different treatment groups, treated with nothing (control), calcitonin or FPP (as a positive control) and then incubated for 40 min. Salmon calcitonin was used at a final concentration of 5 ng/ml, human calcitonin was used at 200 ng/ml and 20 ng/ml and FPP was used at 100 nM. These short-term incubations were carried out in 0.5 ml plastic microcentrifuge tubes at 37° C. in an atmosphere of 5% CO2, 5% O2, 90% N2. […] Three replicate experiments using uncapacitated sperm were carried out using salmon calcitonin and the higher concentration of human calcitonin (n=3); for the lower concentration of the human hormone, n=2.
# (§1) Chlortetracycline (CTC) fluorescence analysis was carried out as described by Green et al. (1994). Assessments were made on an Olympus BX40 microscope equipped with phase contrast and BX-FLA epifluorescence optics using the wide blue-violet excitation cube (U-MWBV). The excitation beam passed through a 400-440 nm band pass filter and CTC fluorescence was observed through a DM 455 dichroic mirror. In each sample, at least 100 sperm were classified as expressing one of three patterns: F, with fluorescence over the entire head, a pattern characteristic of uncapacitated (non-fertilizing), acrosome-intact sperm; B, with a fluorescence-free band in the postacrosomal region, a pattern characteristic of capacitated (potentially fertilizing), acrosome-intact sperm; AR, with dull or absent fluorescence over the whole head, a pattern characteristic of acrosome-reacted (non-fertilizing) sperm.
# capacitated mouse sperm = experiment: Spontaneous acrosome loss in capacitated suspensions (CTC); format: cell-based; conditions: for incidence of spontaneously acrosome-reacted sperm vs untreated control: 40 min after 90 min capacitation
# Experimental: as §1
# Sperm suspensions were prepared as described earlier for CTC analysis and incubated for 90 min to allow capacitation. Suspensions were then filtered to remove non-motile cells and a sample was stained with CTC (Con-90). The remaining suspension was aliquotted out to different treatment groups and treated for 40 min with nothing (Con-130), 100 nM FPP (positive control), 100 nM FPP+100 ng/ml pertussis toxin (F+PT, negative control), 5 ng/ml salmon calcitonin (CT) and 5 ng/ml salmon calcitonin+100 ng/ml pertussis toxin (CT+PT); (n=3).
# mouse sperm = experiment: Subjective motility evaluation; format: cell-based; conditions: judged subjectively; concentrations as in the CTC experiments
# Source text: In all experiments, a drop of each suspension was examined briefly for subjective motility evaluation.
# human sperm [2] = conditions: Green et al., 1996; cited from earlier work
# [3] = test system: uncapacitated mouse sperm suspensions; experiment: In vitro fertilization analysis; format: cell-based; conditions: 40 min preincubation, 65 min coincubation
# Experimental: The contents of the cauda epididymides from 2 mature TO male mice were released into 2 ml modified Tyrode's medium in 30 mm sterile culture dishes and allowed to disperse for 5 min. Suspensions were then divided into 3 treatment groups, each in a 30 mm sterile dishes, and treated with nothing (Control) or with calcitonin. As in the CTC experiments, salmon calcitonin was used at a final concentration of 5 ng/ml and human calcitonin at 200 ng/ml. Each suspension was overlaid with autoclaved liquid paraffin and incubated for 40 min at 37° C. in an atmosphere of 5% O2, 5% CO2, 90% N2.
# Mature female TO mice were induced to superovulate by intraperitoneal injections of 7.5 IU equine chorionic gonadotrophin and approximately 50 hr later with 5 IU human chorionic gonadotrophin (hCG). Approximately 15 hr post-hCG, oviducts were removed and cumulus masses containing the oocytes were released into medium covered with liquid paraffin. Preincubated sperm suspensions were diluted ^˜10 fold into medium of the same composition used for initial incubation (i.e., without or with calcitonin); 400 μl of diluted suspension were transferred to culture dishes, covered with liquid paraffin and oocytes were added. […]
# Oocytes were stained with 0.75% aceto orcein, mounted and assessed (Fraser, 1993). […]
# human sperm [4] = conditions: some (higher) concentrations; Gnessi et al, 1984; cited from earlier work
# [5] = pertussis toxin at 100 ng/ml, 40 min
compound,measurement,setting,value
"NC(=O)[C@@H]1CCCN1C(=O)[C@H](CCC(=O)O)NC(=O)[C@@H]1CCC(=O)N1 [FPP, pyroglutamylglutamylprolineamide] ([pGlu]-Glu-Pro-NH2)","proportion of F pattern cells (uncapacitated, non-fertilizing) vs untreated",[1]; 100 nM,significantly lower proportion
same,"proportion of B pattern cells (capacitated, potentially fertilizing) vs untreated","[1]; 100 nM, P<0.01, positive control",significantly higher proportion
same,incidence of spontaneously acrosome-reacted sperm vs untreated control,"capacitated mouse sperm; 100 nM, P<0.01, n=3, positive control",significantly lower incidence
same,sperm motility vs untreated controls,mouse sperm,more active motility
same,human sperm fertilizing ability,human sperm [2],stimulate human sperm fertilizing ability
calcitonin,sperm motility vs untreated controls,mouse sperm,more active motility
"human calcitonin: 32-amino acid hypocalcemic hormone of human origin (CGNLSTCMLGTYTQDFNKFHTFPQTAIGVGAP-NH2; disulfide 1-7; ends not checked; UniProt P01258 85-116, looked up)","proportion of F pattern cells (uncapacitated, non-fertilizing) vs untreated",[1]; 20 ng/ml,significantly lower proportion
same,"proportion of B pattern cells (capacitated, potentially fertilizing) vs untreated","[1]; 20 ng/ml, P<0.025, n=2",significantly higher proportion
same,"proportion of F pattern cells (uncapacitated, non-fertilizing) vs untreated",[1]; 200 ng/ml,significantly lower proportion
same,"proportion of B pattern cells (capacitated, potentially fertilizing) vs untreated","[1]; 200 ng/ml, P<0.01, n=3",significantly higher proportion
same,fertilized oocytes obtained vs untreated control sperm,"[3]; 200 ng/ml, P<0.05, n=4",significantly more fertilized oocytes
same,effect on human sperm motility,human sperm [4],not
pertussis toxin,effect on the response (inhibition of spontaneous acrosome loss) to 5 ng/ml salmon calcitonin,capacitated mouse sperm; [5],abolished the responses
same,effect on the response (inhibition of spontaneous acrosome loss) to 100 nM FPP,capacitated mouse sperm; [5],abolished the responses
salmon calcitonin,"proportion of F pattern cells (uncapacitated, non-fertilizing) vs untreated",[1]; 5 ng/ml,significantly lower proportion
same,"proportion of B pattern cells (capacitated, potentially fertilizing) vs untreated","[1]; 5 ng/ml, P<0.01, n=3",significantly higher proportion
same,fertilized oocytes obtained vs untreated control sperm,"[3]; 5 ng/ml, P<0.025, n=4",significantly more fertilized oocytes
same,incidence of spontaneously acrosome-reacted sperm vs untreated control,"capacitated mouse sperm; 5 ng/ml, P<0.01, n=3",significantly lower incidence
same,effect on human sperm motility,human sperm [4],negative effect
